The data set in a line: Solid-liquid equilibrium temperature.

Molecules are shown by their SMILES. ± gives the expanded uncertainty stated by the source.

Take `CCCCCCCCCCCCCCCC` [hexadecane]: the Solid-liquid equilibrium temperature is, setting by setting: (100 kPa, Crystal 1) 291.5 ± 0.9 K; (20000 kPa, Crystal 1) 296 ± 0.9 K; (40000 kPa, Crystal 1) 300.4 ± 0.9 K; (60000 kPa, Crystal 1) 304.8 ± 0.9 K; (80000 kPa, Crystal 1) 309.7 ± 0.9 K; (100000 kPa, Crystal 1) 313.5 ± 0.9 K.
On to `CCCCCCCCCCCCCCC` [pentadecane], for which the Solid-liquid equilibrium temperature is, setting by setting: (100 kPa, Crystal) 283.2 ± 0.9 K; (20000 kPa, Crystal) 287.8 ± 0.9 K; (40000 kPa, Crystal) 291.9 ± 0.9 K; (60000 kPa, Crystal) 296.2 ± 0.9 K; (80000 kPa, Crystal) 300.1 ± 0.9 K; (100000 kPa, Crystal) 303.9 ± 0.9 K.
Consider `CCCCCCCCCCCCCC` [tetradecane], for which the Solid-liquid equilibrium temperature (100 kPa, Crystal) turned out to be 279.2 ± 0.9 K; the Solid-liquid equilibrium temperature (20000 kPa, Crystal) is 284.2 ± 0.9 K; the Solid-liquid equilibrium temperature (40000 kPa, Crystal) was found to be 289.1 ± 0.9 K; the Solid-liquid equilibrium temperature (60000 kPa, Crystal) is recorded as 293.8 ± 0.9 K; the Solid-liquid equilibrium temperature (80000 kPa, Crystal) is given as 297.9 ± 0.9 K; the Solid-liquid equilibrium temperature (100000 kPa, Crystal) turned out to be 301.7 ± 0.9 K.

Source of the values: the NIST ThermoML archive (doi:10.1016/j.fluid.2005.06.028).
